Assay results: patent US12624009B2, “Hydrate of VEGFR inhibitor, crystal form thereof and preparation method therefor” (CHENGDU EASTON BIOPHARMACEUTICALS CO., LTD, priority 2023, dated 2026)

Legend:
Type in all cases: physicochemical
[1] = Stability of crystal forms suspended and stirred in water, solids characterised by XRD; details: for crystal form stability in water: 25° C. and 37° C., 5 h and 24 h, compared with crystal forms I, II, III, VII, IV, VIII and C
Text: The solids were filtered and subjected to XRD characterization.

[2] = Storage stability investigation of crystal forms of fruquintinib (crystal form after storage); details: for crystal form stability under the conditions investigated: 25° C./RH60% and 40° C./RH75%, storage up to 6 months (FIG. 4, 5A, 5B)
[3] = Grinding in planetary ball mill, XRD compared with simulated single-crystal pattern; details: 60 HZ, about 30 s
Text: The XRD pattern after grinding was substantially consistent with FIG. 1B.

Suspending and stirring for 5 h Crystal form ([1]; 25° C.)	Suspending and stirring for 24 h Crystal form ([1]; 25° C.)	Suspending and stirring for 5 h Crystal form ([1]; 37° C.)	Suspending and stirring for 24 h Crystal form ([1]; 37° C.)	crystal form stability under the conditions investigated [2]	Crystal form after storage ([2]; 25° C./RH60%, 6 months)	Crystal form after storage ([2]; 40° C./RH75%, 6 months)	polymorphic transition after grinding [3]	crystal form stability in water [1]	crystal form stability in water ([1]; listed as crystal form α of fruquintinib)	Crystal form after storage ([2]; 25° C./RH60%, 2 months)	Crystal form after storage ([2]; 40° C./RH75%, 2 months)	Structure (SMILES)
Crystal form α	Crystal form α	Crystal form α	Crystal form α	–	–	–	–	–	–	–	–	CNC(=O)c1c(C)oc2cc(Oc3ncnc4cc(OC)c(OC)cc34)ccc12 [Crystal form VII, 6-(6,7-dimethoxyquinazolin-4-yl-oxy)-N,2-dimethylbenzofuran-3-carboxamide]
Crystal form α	Crystal form α	Crystal form α	Crystal form α	–	–	–	–	–	–	–	–	CNC(=O)c1c(C)oc2cc(Oc3ncnc4cc(OC)c(OC)cc34)ccc12 [Crystal form IV, 6-(6,7-dimethoxyquinazolin-4-yl-oxy)-N,2-dimethylbenzofuran-3-carboxamide]
Crystal form α	Crystal form α	Crystal form α	Crystal form α	–	–	–	–	–	–	–	–	CNC(=O)c1c(C)oc2cc(Oc3ncnc4cc(OC)c(OC)cc34)ccc12 [Crystal form α + crystal form I, 6-(6,7-dimethoxyquinazolin-4-yl-oxy)-N,2-dimethylbenzofuran-3-carboxamide]
Crystal form α	Crystal form α	Crystal form α	Crystal form α	–	–	–	–	–	–	–	–	CNC(=O)c1c(C)oc2cc(Oc3ncnc4cc(OC)c(OC)cc34)ccc12 [Crystal form VIII, 6-(6,7-dimethoxyquinazolin-4-yl-oxy)-N,2-dimethylbenzofuran-3-carboxamide]
Crystal form I	–	Crystal form I	–	–	–	–	–	–	–	–	–	CNC(=O)c1c(C)oc2cc(Oc3ncnc4cc(OC)c(OC)cc34)ccc12 [Crystal form I, 6-(6,7-dimethoxyquinazolin-4-yl-oxy)-N,2-dimethylbenzofuran-3-carboxamide]
–	–	–	–	good crystal form stability	Crystal form α	Crystal form α	–	–	–	–	–	CNC(=O)c1c(C)oc2cc(Oc3ncnc4cc(OC)c(OC)cc34)ccc12 [Crystal form α (after grinding), 6-(6,7-dimethoxyquinazolin-4-yl-oxy)-N,2-dimethylbenzofuran-3-carboxamide]
Crystal form α	Crystal form α	Crystal form α	Crystal form α	–	–	–	–	–	–	–	–	CNC(=O)c1c(C)oc2cc(Oc3ncnc4cc(OC)c(OC)cc34)ccc12 [Crystal form C, 6-(6,7-dimethoxyquinazolin-4-yl-oxy)-N,2-dimethylbenzofuran-3-carboxamide]
Crystal form α	Crystal form α	Crystal form α	Crystal form α	good crystal form stability	Crystal form α	Crystal form α	did not undergo polymorphic transition	good stability in water	better crystal form stability	Crystal form α	Crystal form α	CNC(=O)c1c(C)oc2cc(Oc3ncnc4cc(OC)c(OC)cc34)ccc12 [Crystal form α, 6-(6,7-dimethoxyquinazolin-4-yl-oxy)-N,2-dimethylbenzofuran-3-carboxamide]
Crystal form α	Crystal form α	Crystal form α	Crystal form α	–	–	–	–	–	–	–	–	CNC(=O)c1c(C)oc2cc(Oc3ncnc4cc(OC)c(OC)cc34)ccc12 [Crystal form III, 6-(6,7-dimethoxyquinazolin-4-yl-oxy)-N,2-dimethylbenzofuran-3-carboxamide]
Crystal form α	Crystal form α	Crystal form α	Crystal form α	–	–	–	–	–	–	–	–	CNC(=O)c1c(C)oc2cc(Oc3ncnc4cc(OC)c(OC)cc34)ccc12 [Crystal form II, 6-(6,7-dimethoxyquinazolin-4-yl-oxy)-N,2-dimethylbenzofuran-3-carboxamide]
